Experimental data as given in US20190031717A1, “MULTI-FUNCTIONAL FUSION POLYPEPTIDE, PREPARATION METHOD THEREOF, AND APPLICATION OF SAME” (NANJING ANJI BIOLOGICAL TECHNOLOGY CO., LTD, priority 2016, published 2019).

What was measured:
Assay type in all cases: cell-based, human
Set-up in all cases: concentration or dose not given beside the values
Squamous cell carcinoma = assay: MTT assay, lung cancer tumor cells; settings: 48 h, mean ± SD
Small Cell Lung Cancer = assay: MTT assay, lung cancer tumor cells; settings: 48 h, mean ± SD
Adenocarcinoma = assay: MTT assay, lung cancer tumor cells; settings: 48 h, mean ± SD
Kidney cancer = assay: MTT assay, tumor cells; settings: 48 hours, mean ± SD
Method: (§1) A variety of human tumor cells were cultured in a 37° C., 5% (volume fraction) CO2 incubator to a density of 90% or more, collected by trypsinization, resuspended in a culture medium and counted under a microscope, and the cells were harvested. The concentration was adjusted to 2.0×10^4 cells/mL, the cell suspension was inoculated into a 96-well plate at 100 μL per well and cultured overnight at 37° C. in a 5% (volume fraction) CO2 incubator. After the cells were completely adhered, the polypeptides of the present invention were added as drug-administered groups, and a culture solution containing no drug was used as a blank control group, and the culture solution was diluted to each predetermined concentration. Each dilution was separately added to a 96-well plate at 100 μL per well and incubated for 48 hours at 37° C. in a 5% (volume fraction) CO2 incubator. 20 μL of 5 mg/mL MTT was added to each well of a 96-well plate and incubation was continued for 4 h. The medium was aspirated and dissolved in 100 μL of DMSO per well. The absorbance was measured with a microplate reader at a detection wavelength of 570 nm and a reference wavelength of 630 nm, and the growth inhibition rate was calculated as follows: tumor growth inhibition rate (%)=(1−absorbance value of the administered group/unadministered group absorbance value)×100%, and the experiment was repeated 3 times independently. The results obtained from the test were expressed as mean±standard deviation, and the tumor growth inhibition rate of the unadministered group was 0. The results in Table 7 indicate that the polypeptides of the present invention have a significant inhibitory effect on the growth of various tumors (FIG. 6).

Ovarian cancer = assay: MTT assay, tumor cells; settings: 48 hours, mean ± SD
Method: as §1

Head and neck cancer = assay: MTT assay, tumor cells; settings: 48 hours, mean ± SD
Method: as §1

Colorectal cancer = assay: MTT assay, tumor cells; settings: 48 hours, mean ± SD
Method: as §1

Bladder Cancer = assay: MTT assay, tumor cells; settings: 48 hours, mean ± SD
Method: as §1

Uterine cancer = assay: MTT assay, tumor cells; settings: 48 hours, mean ± SD
Method: as §1

Esophageal cancer = assay: MTT assay, tumor cells; settings: 48 hours, mean ± SD
Method: as §1

Gastric cancer = assay: MTT assay, tumor cells; settings: 48 hours, mean ± SD
Method: as §1

Hemangioma = assay: MTT assay, tumor cells; settings: 48 hours, mean ± SD
Method: as §1

Prostate cancer = assay: MTT assay, tumor cells; settings: 48 hours, mean ± SD
Method: as §1

Cervical cancer = assay: MTT assay, tumor cells; settings: 48 hours, mean ± SD
Method: as §1

Liver cancer = assay: MTT assay, tumor cells; settings: 48 hours, mean ± SD
Method: as §1

Melanoma = assay: MTT assay, tumor cells; settings: 48 hours, mean ± SD
Method: as §1

sarcoma = assay: MTT assay, tumor cells; settings: 48 hours, mean ± SD
Method: as §1

Pancreatic cancer = assay: MTT assay, tumor cells; settings: 48 hours, mean ± SD
Method: as §1

Brain tumor = assay: MTT assay, tumor cells; settings: 48 hours, mean ± SD
Method: as §1

Breast cancer = assay: MTT assay, tumor cells; settings: 48 hours, mean ± SD
Method: as §1

Thyroid cancer = assay: MTT assay, tumor cells; settings: 48 hours, mean ± SD
Method: as §1

## Pro-(D-Pyr)-(D-Cys)-Bip-Arg-Gly-Glu-Gly-Gly-Gly-Gly-Ile-Val-Arg-Arg-Ala-Asp-Arg-Ala-Ala-Val-Pro-Gly-Gly-Gly-Gly-Arg-Gly-Asp [Polypeptide I]
Squamous cell carcinoma
  tumor growth inhibition rate, MTT Assay: 49.73 ± 9.76%
Small Cell Lung Cancer
  tumor growth inhibition rate, MTT Assay: 52.70 ± 13.22%
Adenocarcinoma
  tumor growth inhibition rate, MTT Assay: 65.67 ± 13.74%
Kidney cancer
  tumor growth inhibition rate, MTT Assay: 44.70 ± 15.75%
Ovarian cancer
  tumor growth inhibition rate, MTT Assay: 67.74 ± 18.82%
Head and neck cancer
  tumor growth inhibition rate, MTT Assay: 36.22 ± 10.06%
Colorectal cancer
  tumor growth inhibition rate, MTT Assay: 63.55 ± 17.65%
Bladder Cancer
  tumor growth inhibition rate, MTT Assay: 38.69 ± 10.75%
Uterine cancer
  tumor growth inhibition rate, MTT Assay: 58.14 ± 19.48%
Esophageal cancer
  tumor growth inhibition rate, MTT Assay: 49.07 ± 13.63%
Gastric cancer
  tumor growth inhibition rate, MTT Assay: 48.41 ± 16.78%
Hemangioma
  tumor growth inhibition rate, MTT Assay: 76.08 ± 21.13%
Prostate cancer
  tumor growth inhibition rate, MTT Assay: 60.28 ± 20.08%
Cervical cancer
  tumor growth inhibition rate, MTT Assay: 56.16 ± 22.27%
Liver cancer
  tumor growth inhibition rate, MTT Assay: 54.38 ± 15.11%
Melanoma
  tumor growth inhibition rate, MTT Assay: 42.41 ± 11.78%
sarcoma
  tumor growth inhibition rate, MTT Assay: 49.18 ± 13.66%
Pancreatic cancer
  tumor growth inhibition rate, MTT Assay: 54.91 ± 18.59%
Brain tumor
  tumor growth inhibition rate, MTT Assay: 51.00 ± 14.17%
Breast cancer
  tumor growth inhibition rate, MTT Assay: 68.27 ± 18.96%
Thyroid cancer
  tumor growth inhibition rate, MTT Assay: 46.70 ± 12.97%

## Arg-Gly-Asp-Gly-Gly-Gly-Gly-Ile-Val-Arg-Arg-Ala-Asp-Arg-Ala-Ala-Val-Pro-Gly-Gly-Gly-Gly-Pro-(D-Pyr)-(D-Cys)-Bip-Arg-Gly-Glu [Polypeptide IV]
Squamous cell carcinoma
  tumor growth inhibition rate, MTT Assay: 67.13 ± 12.69%
Small Cell Lung Cancer
  tumor growth inhibition rate, MTT Assay: 71.14 ± 17.19%
Adenocarcinoma
  tumor growth inhibition rate, MTT Assay: 88.65 ± 17.86%
Kidney cancer
  tumor growth inhibition rate, MTT Assay: 60.35 ± 20.48%
Ovarian cancer
  tumor growth inhibition rate, MTT Assay: 91.45 ± 24.46%
Head and neck cancer
  tumor growth inhibition rate, MTT Assay: 48.89 ± 13.08%
Colorectal cancer
  tumor growth inhibition rate, MTT Assay: 85.80 ± 22.95%
Bladder Cancer
  tumor growth inhibition rate, MTT Assay: 52.23 ± 13.97%
Uterine cancer
  tumor growth inhibition rate, MTT Assay: 78.49 ± 25.33%
Esophageal cancer
  tumor growth inhibition rate, MTT Assay: 66.24 ± 17.72%
Gastric cancer
  tumor growth inhibition rate, MTT Assay: 65.35 ± 21.81%
Hemangioma
  tumor growth inhibition rate, MTT Assay: 87.49 ± 27.47%
Prostate cancer
  tumor growth inhibition rate, MTT Assay: 81.37 ± 26.10%
Cervical cancer
  tumor growth inhibition rate, MTT Assay: 64.58 ± 28.95%
Liver cancer
  tumor growth inhibition rate, MTT Assay: 73.42 ± 19.64%
Melanoma
  tumor growth inhibition rate, MTT Assay: 57.25 ± 15.31%
sarcoma
  tumor growth inhibition rate, MTT Assay: 66.39 ± 17.76%
Pancreatic cancer
  tumor growth inhibition rate, MTT Assay: 74.13 ± 24.16%
Brain tumor
  tumor growth inhibition rate, MTT Assay: 68.85 ± 18.42%
Breast cancer
  tumor growth inhibition rate, MTT Assay: 92.16 ± 24.65%
Thyroid cancer
  tumor growth inhibition rate, MTT Assay: 63.05 ± 16.87%
